The source of these data is PMC4456386, “Ligand Recognition of the Major Birch Pollen Allergen Bet v 1 is Isoform Dependent” (PLoS ONE, 2015).

Where “and” joins values, the source holds several entries; their conditions need not be identical. Identical values can stand only once. Entries after “also recorded” stand apart in the source; their conditions may differ.

T2 sequence (P15494 whole entry): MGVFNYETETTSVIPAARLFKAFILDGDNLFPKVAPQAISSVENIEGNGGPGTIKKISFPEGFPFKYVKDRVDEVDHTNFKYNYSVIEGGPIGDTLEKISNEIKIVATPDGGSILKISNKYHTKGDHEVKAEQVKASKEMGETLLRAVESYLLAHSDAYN

In the first data set the target is T1, Bet v 1d (Betula pendula, UniProt P43177).
T1 construct: made in house
T1 sequence (P43177 whole entry): as the sequence (P15494 whole entry) above, with T8I, F31V, S58N, I92V, S113C, I114V, D126N counted along it
The data set can be described thus: 1H-15N HSQC NMR titration (chemical shift perturbation) of 15N-Bet v 1d. It counts as binding, Betula verrucosa. Conditions: 1H-15N HSQC titration, up to 15-fold excess. On the procedure: (§1) All NMR experiments were performed at 298 K in 50 mM sodium phosphate buffer, 50 mM NaCl, pH 7.0, 10% deuterium oxide (^2H2O) with ^15N-uniformly labelled Bet v 1 isoforms using Bruker Avance 700 MHz and Avance 800 MHz spectrometers with cryogenically cooled triple-resonance probes equipped with pulsed field-gradient capabilities. NMR data were processed using NMRPipe and visualized with NMRViewJ [89]. Three-dimensional ^15N-edited NOESY (nuclear Overhauser enhancement spectroscopy, mixing times 120 ms) experiments to assign chemical shifts were obtained with 500 μM ^15N-labeled samples of Bet v 1 isoform d or m and yielded 91% of assigned residues for Bet v 1d and 89% for Bet v 1m. The sequence-specific assignments of the amide resonances of Bet v 1a are reported elsewhere.
(§2) Interaction of Q3OS with the Bet v 1 isoforms was measured by incubating 700 μM Q3OS with 50 μM of each ^15N-labeled Bet v 1 isoform in 50 mM sodium phosphate, 50 mM NaCl buffer, pH 7.0.
(§3) For titration experiments all other flavonoids were dissolved in deuterated DMSO, while glucose and galactose were dissolved in 50 mM sodium phosphate buffer, 50 mM NaCl, pH 7.0, 10% deuterium oxide and titrated stepwise to a final excess of up to 17-fold to protein samples (ca. 100 μM). […] CSPs for ligand binding were calculated based on Eq (2): […] (2) ΔδHN and ΔδN, chemical shift differences of amide proton and nitrogen resonances, respectively, in ppm.
(§4) K d values for flavonoid binding were determined with NMRViewJ [89]. All analysable amino acid residues that were unaffected by DMSO addition and showing CSPs > 0.08 ppm were fitted to a quadratic binding curve with default settings, and an average K d app was calculated (Table 1 and S1–S3 Tables). The CSPs of all residues showing CSPs > 0.04 ppm were mapped either on models of Bet v 1d and Bet v 1m or on the Bet v 1a structure (pdb code 1BV1, [29]).
With `O=c1c(O[C@@H]2O[C@H](CO)[C@H](O)[C@H](O)[C@H]2O)c(-c2ccc(O)c(O)c2)oc2cc(O)cc(O)c12` [Q3OGal, quercetin-3-O-galactoside], the “binding to Bet v 1d (in words)” value was “Weak affinity; also recorded: did not produce significant CSPs”.

Staying with this data set, now noted: Dissociation constant Kd (averaged Kd app), NMR, Bet v 1d; average of all analysable residues with CSPs > 0.08 ppm, ± standard deviation.
Consider `O=c1cc(-c2ccccc2)oc2ccccc12` [Flavone, flavone], for which the Kd turned out to be 69.9 ± 14.8 µM.

Staying with this data set, now noted: NMR, Bet v 1d; average of all analysable residues with CSPs > 0.08 ppm, ± standard deviation.
`O=c1c(O[C@@H]2O[C@H](CO)[C@H](O)[C@H](O)[C@H]2O)c(-c2ccc(O)c(O)c2)oc2cc(O)cc(O)c12` [Q3OGal, quercetin-3-O-galactoside]: the “Dissociation constant Kd (averaged Kd app)” value is on record as “No binding”.

A further data set deals with serum IgE binding to surface-coated Bet v 1a, Bet v 1d and Bet v 1m. The data set can be described thus: Indirect ELISA for IgE binding to Bet v 1 isoforms. Conditions: 5-fold molar excess of ligand; isoforms a, d, m. The arrangement: species or system human. The source says: Fifteen sera of birch pollen-allergic subjects were collected, tested, and pooled according to the guideline of the European Medicines Agency (EMEA/CHMP/BWP/304831/2007). The serum pool is routinely used for batch-release testing of birch pollen-derived allergenic products at the Paul-Ehrlich-Institut. The same serum pool was used for both, ELISA and mediator release assays.
For IgE-ELISA experiments, Maxisorp plates (Nunc via Fisher Scientific) were coated overnight at room temperature with 50 ng/100 μl recombinant Bet v 1 isoforms a, d, or m with a 5-fold molar excess of quercetin-3-O-sophorose, rutin, quercetin, quercetin-3-O-glucoside, quercetin-3-O-galactoside, or sophorose, respectively, in phosphate-buffered saline (PBS). After blocking with PBS containing 2% bovine serum albumin (BSA) these plates and an uncoated control were incubated with a dilution series of a serum pool of birch-pollen allergic subjects for 1 h at room temperature with PBS containing 0.05% Tween 20 and 0.1% BSA. Allergen-specific human IgE was detected with a horseradish peroxidase-conjugated mouse anti-human IgE antibody (Clone B3102E8, Southern biotech via Biozol, Eching, Germany) diluted 1:1000. 3,3′,5,5′-tetramethylbenzidine (Roth, Karlsruhe) was used as substrate for horseradish peroxidase, and the absorbance at 450 nm was measured after stopping the reaction with 25% H2SO4.
For the compound `O=c1c(O[C@@H]2O[C@H](CO)[C@H](O)[C@H](O)[C@H]2O)c(-c2ccc(O)c(O)c2)oc2cc(O)cc(O)c12` [Q3OGal, quercetin-3-O-galactoside], the “influence of ligand on IgE binding of Bet v 1 isoforms” value is “did not modify IgE-binding”.

For `O=c1c(O)c(-c2ccc(O)c(O)c2)oc2cc(O)cc(O)c12` [Quercetin, quercetin], the “influence of ligand on IgE binding of Bet v 1 isoforms” value is recorded as “did not modify IgE-binding”.

The target of the next data set is T1, Bet v 1d. The data set can be described thus: UV/VIS equilibrium titration of flavonoids with Bet v 1d. Type of data set: binding, Betula verrucosa.
Settings: not given
On the procedure:
(§5) All flavonoids and Bet v 1 isoforms were dissolved in 50 mM sodium phosphate, 50 mM NaCl, 10% (v/v) DMSO, pH 7.0, to a final concentration of 10 to 20 μM in 500 μl. Absorption spectra from 200–800 nm were recorded at 25°C in a 1 cm quartz cuvette (Hellma GmbH) using a 8453 UV-visible spectrophotometer (Agilent).
(§6) To further characterize flavonoid binding to Bet v 1, titration experiments were performed by adding small amounts of concentrated Bet v 1 isoform a, d or m to different flavonoids. Changes of flavonoid absorption occurring at specific wavelengths were plotted against the protein concentration. Prior to curve-fitting, absorbance data were corrected for dilution. If possible, the equilibrium dissociation constant (K d) was determined by non-linear regression analysis of the data with GraFit-5 (Version 5.0, Erithacus Software, UK) using the following Eq (1): ΔA=ΔAmax/2Q[(B+Q+Kd)-((B+Q+Kd)^2-[…])] (1) ΔA max, maximum change in absorbance at specific wavelengths; B, Bet v 1a concentration; Q, total flavonoid concentration.
Compound `O=c1c(O)c(-c2ccc(O)c(O)c2)oc2cc(O)cc(O)c12` [Quercetin, quercetin] gave a Kd of 10.2 ± 1 µM.

The same data set, now with this note: complex with Bet v 1d.
With `O=c1c(O)c(-c2ccc(O)c(O)c2)oc2cc(O)cc(O)c12` [Quercetin, quercetin], the “Absorption maxima, Bet v 1d:Flavonoid” value is 382 nm.

A further data set concerns the target T2, Bet v 1a (Betula pendula, UniProt P15494).
T2 construct: made in house
Description: 1H-15N HSQC NMR titration (chemical shift perturbation) of 15N-Bet v 1a. It counts as binding, Betula verrucosa. Conditions: 1H-15N HSQC titration. On the procedure: as §1, §2, §3, §4
In the case of `O=c1c(O[C@@H]2O[C@H](CO)[C@H](O)[C@H](O)[C@H]2O)c(-c2ccc(O)c(O)c2)oc2cc(O)cc(O)c12` [Q3OGal, quercetin-3-O-galactoside], the “binding to Bet v 1a (in words)” value is listed as “high affinity; also recorded: strong”.

Still in this data set, the particulars now being: Bet v 1a, one value per residue with Δδnorm > 0.08 ppm (residue named left of the cell); Int. Ex. = intermediate exchange.
Regarding `O=c1c(O[C@@H]2O[C@H](CO)[C@H](O)[C@H](O)[C@H]2O)c(-c2ccc(O)c(O)c2)oc2cc(O)cc(O)c12` [Q3OGal, quercetin-3-O-galactoside], the Kd per residue entry is on record as “Int. Ex”.

As to `O=c1c(O)c(-c2ccc(O)c(O)c2)oc2cc(O)cc(O)c12` [Quercetin, quercetin], the Kd per residue entry is “Int. Ex”.

Staying with this data set, now noted: Dissociation constant Kd (averaged Kd app), NMR, Bet v 1a; average of all analysable residues with CSPs > 0.08 ppm, ± standard deviation.
For `O=c1cc(-c2ccccc2)oc2ccccc12` [Flavone, flavone], the Kd was 67.1 ± 12.1 µM.

Take `O=c1c(O)c(-c2ccc(O)c(O)c2)oc2cc(O)cc(O)c12` [Quercetin, quercetin]: the Kd came out at 31.4 ± 10.3 µM.

Staying with this data set, now noted: Kd per residue, Bet v 1a, one value per residue with Δδnorm > 0.08 ppm (residue named left of the cell); Int. Ex. = intermediate exchange.
With `O=c1c(O)c(-c2ccc(O)c(O)c2)oc2cc(O)cc(O)c12` [Quercetin, quercetin], the Kd is 69.1 µM and 36.8 µM and 11.1 µM and 21.6 µM and 18.6 µM.

Still in this data set, the particulars now being: NMR, Bet v 1a; average of all analysable residues with CSPs > 0.08 ppm, ± standard deviation; read-out: Dissociation constant Kd (averaged Kd app).
`O=c1c(O[C@@H]2O[C@H](CO)[C@H](O)[C@H](O)[C@H]2O)c(-c2ccc(O)c(O)c2)oc2cc(O)cc(O)c12` [Q3OGal, quercetin-3-O-galactoside]: the Kd was less than 5 µM.

In a further data set the target is T3, Bet v 1m (Betula pendula, UniProt P43186).
T3 construct: made in house
T3 sequence (P43186 whole entry): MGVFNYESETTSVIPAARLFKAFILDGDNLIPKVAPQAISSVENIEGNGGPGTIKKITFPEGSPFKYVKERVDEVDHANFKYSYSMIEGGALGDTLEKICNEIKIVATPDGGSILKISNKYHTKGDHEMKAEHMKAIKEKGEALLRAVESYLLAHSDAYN
The data set can be described thus: UV/VIS equilibrium titration of flavonoids with Bet v 1m. It counts as binding, Betula verrucosa.
Settings: not given
On the procedure: as §5, §6
`O=c1c(O)c(-c2ccc(O)c(O)c2)oc2cc(O)cc(O)c12` [Quercetin, quercetin]: the Kd came to 26.5 ± 1.5 µM.

Still in this data set, the particulars now being: complex with Bet v 1m.
With `O=c1c(O)c(-c2ccc(O)c(O)c2)oc2cc(O)cc(O)c12` [Quercetin, quercetin], the “Absorption maxima, Bet v 1m:Flavonoid” value is given as 381 nm.

System in a further data set: not listed separately
Description: UV/VIS absorption spectra of unbound flavonoids. The conditions noted are these: pH 7.0. Type of data set: physicochemical. On the procedure: as §5
Regarding `O=c1cc(-c2ccccc2)oc2ccccc12` [Flavone, flavone], the “Absorption maxima, Flavonoid” value turned out to be 302 nm.

Regarding `O=c1c(O[C@@H]2O[C@H](CO)[C@H](O)[C@H](O)[C@H]2O)c(-c2ccc(O)c(O)c2)oc2cc(O)cc(O)c12` [Q3OGal, quercetin-3-O-galactoside], the “Absorption maxima, Flavonoid” value is recorded as 358 nm.

As for `O=c1c(O)c(-c2ccc(O)c(O)c2)oc2cc(O)cc(O)c12` [Quercetin, quercetin], the “Absorption maxima, Flavonoid” value is given as 377 nm.

Another data set has as its target T3, Bet v 1m. Description: 1H-15N HSQC NMR titration (chemical shift perturbation) of 15N-Bet v 1m. It counts as binding, Betula verrucosa. The conditions noted are these: 1H-15N HSQC titration, up to 15-fold excess.
As for `O=c1c(O[C@@H]2O[C@H](CO)[C@H](O)[C@H](O)[C@H]2O)c(-c2ccc(O)c(O)c2)oc2cc(O)cc(O)c12` [Q3OGal, quercetin-3-O-galactoside], the “binding to Bet v 1m (in words)” value is listed as “High affinity”.

Another data set deals with T3, Bet v 1m. Described as above. Conditions: Dissociation constant Kd (averaged Kd app), NMR, average of all analysable residues with CSPs > 0.08 ppm, ± standard deviation. Type of data set: binding, Betula verrucosa. On the procedure:
as §1, §2, §3, §4
Take `O=c1cc(-c2ccccc2)oc2ccccc12` [Flavone, flavone]: the Kd came to 213 ± 36.6 µM.

Regarding `O=c1c(O)c(-c2ccc(O)c(O)c2)oc2cc(O)cc(O)c12` [Quercetin, quercetin], the Kd turned out to be 65.8 ± 8.2 µM.

Staying with this data set, now noted: NMR, average of all analysable residues with CSPs > 0.08 ppm, ± standard deviation, read-out: Dissociation constant Kd (averaged Kd app).
For `O=c1c(O[C@@H]2O[C@H](CO)[C@H](O)[C@H](O)[C@H]2O)c(-c2ccc(O)c(O)c2)oc2cc(O)cc(O)c12` [Q3OGal, quercetin-3-O-galactoside], the Kd is less than 5 µM.

The data set is the same for the next values; noted with them: one value per residue with Δδnorm > 0.08 ppm (residue named left of the cell), Int. Ex. = intermediate exchange.
For `O=c1c(O[C@@H]2O[C@H](CO)[C@H](O)[C@H](O)[C@H]2O)c(-c2ccc(O)c(O)c2)oc2cc(O)cc(O)c12` [Q3OGal, quercetin-3-O-galactoside], the Kd per residue entry is “Int. Ex”.

For `O=c1c(O)c(-c2ccc(O)c(O)c2)oc2cc(O)cc(O)c12` [Quercetin, quercetin], the Kd per residue entry is “Int. Ex”.

The target in a further data set is T2, Bet v 1a. Description: UV/VIS equilibrium titration of flavonoids with Bet v 1a. Conditions: Dissociation constant Kd, UV/VIS titration, Bet v 1a, 298 K, pH 7.0, 10% DMSO; error = standard error of fit. Type of data set: binding, Betula verrucosa. On the procedure: as §5, §6
Take `O=c1c(O)c(-c2ccc(O)c(O)c2)oc2cc(O)cc(O)c12` [Quercetin, quercetin]: the Kd came to 9.2 ± 0.6 µM.

The same data set, now with this note: complex with Bet v 1a.
Regarding `O=c1c(O)c(-c2ccc(O)c(O)c2)oc2cc(O)cc(O)c12` [Quercetin, quercetin], the “Absorption maxima, Bet v 1a:Flavonoid” value is reported as 382 nm.
